# According to BindingDB's records for aid1799748 (Csar, 2012):
# Target: Urokinase-type plasminogen activator (Homo sapiens, UniProt P00749)
# Test: Abbott uPA__Urokinase Human - Ki(uM)
# Conditions: pH 7.4; 25 °C
row,Ki [nM],Compound
1,9,CC(C)C1c2cc(C3CC3c3cc(/C=C/C4CC4)c4cc(C(=N)N)ccc4c3)ccc2CCN1C (stereo not drawn) [uPa_43]
2,223,CN1CCc2ccc(/C=C/c3ccc4cc(C(=N)N)ccc4c3)cc2C1C1CCCCC1 (stereo not drawn) [uPa_40]
3,> 10000,C=CCNC(=O)Nc1cccc2ccc(N)nc12 [uPa_30]
4,> 100000,CN(CC#N)C(=O)c1ccc2ccc(N)nc2c1 [uPa_35]
5,1250,CN1CCc2ccc(C3CC3c3ccc4cc(C(=N)N)ccc4c3)cc2C1c1cccnc1 (stereo not drawn) [uPa_44]
6,> 40000,N#CC(CCOc1cccc2ccc(N)nc12)(c1ccccc1)c1ccccc1 [uPa_16]
7,> 50000,Nc1cnc2ccccc2n1 [uPa_1]
8,94,COc1cc(C2CC2c2ccc3c(c2)C(C(C)C)N(C)CC3)cc2ccc(C(=N)N)cc12 (stereo not drawn) [uPa_42]
9,777,CCOc1cc(OCC)c(OCC)cc1/C=C/c1cc(Br)c2cc(C(=N)N)ccc2c1 [uPa_38]
10,1490,CS(=O)(=O)Nc1cc(CCc2ccccc2)cc2ccc(C(=N)N)cc12 [uPa_37]
11,3570,N=C(N)NC(=O)c1nc(Cl)c(NCc2cc(Cl)cc(Cl)c2)nc1N [uPa_22]
12,> 104000,Nc1ccc2nc(N)ccc2c1 [uPa_23]
13,66,N=C(N)c1ccc2cc(C(=O)Nc3ccc4c(c3)C(C3CCCCC3)=NCC4)ccc2c1 [uPa_31]
14,18,COC(=O)Nc1cc(C(=O)Nc2ccccc2)cc2ccc(C(=N)N)cc12 [uPa_36]
15,16,CC(C)C1=NCCc2ccc(NC(=O)c3cc(Br)c4cc(C(=N)N)ccc4c3)cc21 [uPa_26]
16,7850,N=C(N)c1ccc2cc(C(=O)Nc3ccccc3)cc(-c3ncccn3)c2c1 [uPa_21]
17,290,N=C(N)c1ccc2cc(C(=O)Nc3ccc4c(c3)C(c3ccccc3)=NCC4)ccc2c1 [uPa_29]

row,Ki [nM],Compound
1,8030,COc1cc2ccc(C(=N)N)cc2c(OC)c1OC [uPa_2]
2,769,CS(=O)(=O)n1cc(-c2cc(C(=O)Nc3ccccc3)cc3ccc(C(=N)N)cc23)cn1 [uPa_20]
3,3080,N=C(N)c1ccc2cc(/C=C/CCc3cccnc3)cc(Br)c2c1 [uPa_32]
4,4500,COc1ccc2ccc(C(=N)N)cc2c1-c1cnn(C(C)C)c1 [uPa_11]
5,> 50000,COC(=O)Nc1ccc2nc(C(=N)N)ccc2c1 [uPa_27]
6,> 100000,N=C(N)NC(=O)c1ccc(Cl)c(S(N)(=O)=O)c1 [uPa_45]
7,> 100000,CC(C)CN(CC(C)C)C(=O)c1ccc2ccc(N)nc2c1 [uPa_34]
8,42,CN1CCc2ccc(C3CC3c3ccc4cc(C(=N)N)ccc4c3)cc2C1C1CCC1 (stereo not drawn) [uPa_41]
9,0.9,COC(=O)Nc1cc(C(=O)Nc2ccc(CN)cc2)cc2ccc(C(=N)N)cc12 [uPa_17]
10,> 30000,Nc1cc2ccccc2cn1
11,> 100000,C#CCN(C)C(=O)c1ccc2ccc(N)nc2c1 [uPa_33]
12,8700,N=C(N)c1ccc2cc(NS(=O)(=O)c3ccccc3)ccc2c1 [uPa_14]
13,> 50000,COC(=O)Nc1ccc2nc(N)ccc2c1 [uPa_24]
14,7280,CC(C)Oc1ccc2cc(C(=N)N)ccc2c1 [uPa_5]
15,33,COc1cc(NC(=O)c2ccc3cc(C(=N)N)ccc3c2)cc(OC(C)C)c1 [uPa_28]
16,665,N=C(N)c1ccc2cc(C#Cc3cccc(OC4CCCC4)c3)ccc2c1 [uPa_25]
